Experimental data as given in patent US6387935B1, “Polycyclic dihydrothiazoles having substituted alkyl radicals in the two-position, process for their preparation, and their use as pharmaceuticals” (Aventis Pharma Deutschland GmbH, priority 1999, dated 2002).
Where “and” joins values, the source holds several entries; their conditions need not be identical. Identical values can stand only once.

Key:
[1] = test system: NMRI mice; experiment: Anorectic action: cumulated evaporated milk consumption after oral administration; assay type: in vivo; conditions: for cumulated milk consumption of the treated animals (male): oral dose 50 mg/kg via stomach tube, male NMRI mice after 24 hours feed withdrawal, milk offered 30 minutes after dosing, consumption determined half-hourly for 7 hours; for Reduction of the cumulated milk consumption in % of the control: oral dose 50 mg/kg, male NMRI mice, compared with untreated control animals
Procedure: The anorectic action was tested on male or female NMRI mice. After withdrawal of feed for 24 hours, the test preparation was administered via a stomach tube. Kept individually and with free access to drinking water, the animals were offered evaporated milk 30 minutes after giving the preparation. The consumption of evaporated milk was determined half-hourly for 7 hours and the general condition of the animals was observed. The measured milk consumption was compared with that of the untreated control animals.

SMILES | melting point | cumulated milk consumption of the treated animals (male) [1] | Reduction of the cumulated milk consumption in % of the control [1] [%] | cumulated milk consumption of the treated animals (male) ([1]; 50 mg/kg) | Reduction of the cumulated milk consumption in % of the control ([1]; 50 mg/kg) [%] | cumulated milk consumption of the treated animals (male) ([1]; Hydrobromide, 50 mg/kg) | Reduction of the cumulated milk consumption in % of the control ([1]; Hydrobromide, 50 mg/kg) [%]
Br.OC12N=C(COc3ccc(Cl)cc3Cl)SC1Cc1cc(Cl)ccc12 (stereo not shown) [Example 2] | – | – | – | 5/0.34 ml | 88 | – | –
OC12N=C(CSCc3ccccc3)SC1Cc1cc(Cl)ccc12 (stereo not shown) [Example 12, 2-Benzylsulfanylmethyl-6-chloro-8,8a-dihydroindeno [1,2-d]thiazol-3a-ol] | 102 to 104 °C and 102 °C | 5/1.36 ml | 71 | – | – | – | –
CC(C)(C)c1ccc(OCC2=NC3(O)c4ccc(Cl)cc4CC3S2)cc1 (single isomer, unassigned) [Example 3] | – | – | – | 5/0.78 ml | 73 | – | –

Second part, led by results:

melting point | SMILES | cumulated milk consumption of the treated animals (male) [1] | Reduction of the cumulated milk consumption in % of the control [1] [%] | cumulated milk consumption of the treated animals (male) ([1]; 50 mg/kg) | Reduction of the cumulated milk consumption in % of the control ([1]; 50 mg/kg) [%] | cumulated milk consumption of the treated animals (male) ([1]; Hydrobromide, 50 mg/kg) | Reduction of the cumulated milk consumption in % of the control ([1]; Hydrobromide, 50 mg/kg) [%]
121 °C | OC12N=C(COc3ccccc3)SC1Cc1cc(Cl)ccc12 (stereo not shown) [Example 1, 6-chloro-2-phenoxymethyl-8,8a-dihydroindeno[1,2-d]thiazol-3a-ol] | 5/0.42 ml | 86 | – | – | – | –
170 °C | Br.OC12N=C(COc3ccc(Cl)cc3Cl)SC1Cc1cc(Cl)ccc12 (stereo not shown) [Example 6, 6-Chloro-2-(2,4-dichlorophenoxymethyl)-8,8a-dihydroindeno[1,2-d]thiazol-3a-ol Hydrobromide] | – | – | – | – | 5/0.22 ml | 95
123 °C and 122 to 124 °C | CC(C)(C)c1ccc(OCC2=NC3(O)c4ccc(Cl)cc4CC3S2)cc1 (single isomer, unassigned) [Example 9, 2-(4-tert-butylphenoxymethyl)-6-chloro-8,8a-dihydroindeno [1,2-d]thiazol-3a-ol] | – | – | 5/0.26 ml | 93 | – | –
